Values quoted from earlier work in US20080234335A1, “Cyclohexene Compounds” (priority 2003, published 2008).

How the values were obtained:
EP1 receptor [1] = target: T1, EP1 receptor (Rattus norvegicus, UniProt P70597); parameters: host or cells: live rat (in vivo); settings: rat model of chronic constriction injury
T1 sequence (P70597 1-405): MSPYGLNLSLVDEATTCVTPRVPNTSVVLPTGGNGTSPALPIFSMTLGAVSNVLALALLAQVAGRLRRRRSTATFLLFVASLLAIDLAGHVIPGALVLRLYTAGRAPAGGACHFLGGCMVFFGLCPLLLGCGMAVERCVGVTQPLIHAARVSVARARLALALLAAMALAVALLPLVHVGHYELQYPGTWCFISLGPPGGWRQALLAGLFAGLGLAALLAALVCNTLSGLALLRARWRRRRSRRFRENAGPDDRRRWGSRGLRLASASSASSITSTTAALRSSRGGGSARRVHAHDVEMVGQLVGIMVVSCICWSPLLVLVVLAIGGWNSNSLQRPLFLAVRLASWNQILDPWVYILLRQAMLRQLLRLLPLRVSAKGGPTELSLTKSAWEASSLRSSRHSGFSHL

EP1 receptor [2] = target: T1, EP1 receptor; parameters: host or cells: live rodent (in vivo); settings: rodent model of post-operative pain

## Cc1cc(Cl)ccc1S(=O)(=O)NC[C@H]1C2CCC(CC2)[C@@H]1/C=C\CCCC(=O)O [ONO-8711]
EP1 receptor [1]
  effect on hyperalgesia and allodynia: reduces hyperalgesia and allodynia
EP1 receptor [2]
  effect on mechanical hyperalgesia: inhibits mechanical hyperalgesia
